The results in this text go back to patent US20160297768A1, “NOVEL IMIDAZOLE DERIVATIVES AND THERAPEUTIC USE THEREOF” (INDUSTRY-ACA-DEMIC COORPERATION FOUNDATION, YONSEI …, priority 2013, published 2016).

For one assay, the system named is HeLa cells. In words: Apoptotic activity by MTT analysis, HeLa cells. As to conditions: 15 μM of the compound, mean±standard deviation; for cytotoxicity at 15 µM: Homo sapiens, HeLa, 12 h, read-out: Apoptosis (%) HeLa cells; for Apoptosis (%) HeLa cells: 12 hours. Type of assay: cell-based. How it is done: (§1) Lung cancer cells (A549), colorectal cancer cells (HCT116), HeLa cells, liver cancer cells (HepG2), T-cell leukemia cells (Jurkat), myeloid leukemia cells (K562), breast cancer cells (MCF-7 and MDA-MB-231) and myelocytic leukemia cells ([…]) were obtained from the American Type Culture Collection (ATCC), and cultured in 10% fetal bovine serum (FBS), 50 units/mL penicillin and 50 units/mL streptomycin-added RPMI 1640 (Invitrogen). The cells were maintained in a humidified 37° C., 5% CO2 atmosphere. The anticancer activity was detected by MTT analysis. Each type of cancer cells were plated in triplicate in a 96-well microtiter plate, and cultured at 37° C. for 24 hours. The cells were treated with each of the compounds prepared above at 37° C. for 12 hours. After the culturing of the cells, 10 μL of an MTT reagent ((3-[4,5-dimethyl-2-thiazolyl]-2,5-diphenyl-2H-tetrazoliumbromide) was added to each well, and cultured for 3.5 hours. The absorbance of each sample was detected using a UV microplate reader (SpectraMax 340PC 384, Molecular Devices) at 570 nm. The detection results were measured as a mean value. The effect of each compound on apoptosis is shown in Table 1.
(§2) The A549 and HeLa cells were treated with 15 μM of the compound for 12 hours. The apoptosis was detected using MTT (mean±standard deviation).

Another assay relates to A549 cells. Nature of the assay: Apoptotic activity by MTT analysis, A549 cells. The class given is cell-based. The conditions noted are these: 15 μM of the compound, mean±standard deviation; for cytotoxicity at 15 µM: Homo sapiens, A549, 12 h, read-out: Apoptosis (%) A549 cells; for Apoptosis (%) A549 cells: 12 hours. How it is done: as §1, §2

Each structure is given as a SMILES string.

`NCCOCCOCCNC(=O)c1ccc(Cn2c(-c3cccc(C(F)(F)F)c3)nc(-c3ccc(Br)cc3)c2-c2ccc(Br)cc2)cc1` [Example 2, N-(2-(2-(2-aminoethoxy)ethoxy)ethyl)-4-((4,5-bis(4-bromophenyl)-2-(3-(trifluoromethyl)phenyl)-1H-imidazole-1-yl)methyl)benzamide]: the cytotoxicity at 15 µM in the assay on HeLa cells was 88 ± 1.39%; in the assay on A549 cells it was 80 ± 1.16%.

With `COc1cccc(-c2nc(-c3cccc(C(F)(F)F)c3)n(Cc3ccc(C(=O)NCCOCCOCCN)cc3)c2-c2cccc(OC)c2)c1` [Example 11, N-(2-(2-(2-aminoethoxy)ethoxy)ethyl)-4-((4,5-bis(3-methoxyphenyl)-2-(3-(trifluoromethyl)phenyl)-1H-imidazole-1-yl)methyl)benzamide], the figures for the cytotoxicity at 15 µM with HeLa cells and in the assay on A549 cells were 87 ± 1.55% and 81 ± 1.26%, respectively.

As to `CN(C)c1ccc(-c2nc(-c3cccc(C(F)(F)F)c3)n(Cc3ccc(C(=O)NCCOCCOCCN)cc3)c2-c2ccc(N(C)C)cc2)cc1` [Example 27, N-(2-(2-(2-aminoethoxy)ethoxy)ethyl)-4-((4,5-bis(4-(dimethylamino)phenyl)-2-(3-(trifluoromethyl)phenyl)-1H-imidazole-1-yl)methyl)benzamide], the figures for the cytotoxicity at 15 µM in the assay on HeLa cells and in the assay with A549 cells were 86 ± 0.38% and 76 ± 0.98%, respectively.

`Cc1ccc(-c2nc(-c3cccc(C(F)(F)F)c3)n(Cc3ccc(C(=O)NCCOCCOCCN)cc3)c2-c2ccc(C)cc2)cc1` [Example 35, N-(2-(2-(2-aminoethoxy)ethoxy)ethyl)-4-((4,5-ditolyl-2-(3-(trifluoromethyl)phenyl)-1H-imidazole-1-yl)methyl)benzamide]: the cytotoxicity at 15 µM with HeLa cells worked out at 87 ± 1.68%; in the assay with A549 cells, 64 ± 1.36%.

For `COc1ccc(-c2nc(-c3ccc(C(F)(F)F)cc3)n(Cc3ccc(C(=O)NCCOCCOCCN)cc3)c2-c2ccc(OC)cc2)cc1` [Example 43, N-(2-(2-(2-aminoethoxy)ethoxy)ethyl)-4-((4,5-bis(4-methoxyphenyl)-2-(4-(trifluoromethyl)phenyl)-1H-imidazole-1-yl)methyl)benzamide], the cytotoxicity at 15 µM amounted to 38 ± 0.38% with HeLa cells and 36 ± 0.86% in the assay with A549 cells.

Consider `COc1ccc(-c2nc(-c3ccc(C(F)(F)F)cc3C(F)(F)F)n(Cc3ccc(C(=O)NCCOCCOCCN)cc3)c2-c2ccc(OC)cc2)cc1` [Example 44, N-(2-(2-(2-aminoethoxy)ethoxy)ethyl)-4-((2-(2,4-bis(trifluoromethyl)phenyl)-4,5-bis(4-methoxyphenyl)-1H-imidazole-1-yl)methyl)benzamide], for which the cytotoxicity at 15 µM with HeLa cells came out at 31 ± 0.28%; in the assay on A549 cells, 38 ± 0.68%.

Regarding `COc1ccc(-c2nc(-c3cc(C)cc(C)c3)n(Cc3ccc(C(=O)NCCOCCOCCN)cc3)c2-c2ccc(OC)cc2)cc1` [Example 45, N-(2-(2-(2-aminoethoxy)ethoxy)ethyl)-4-((2-(3,5-dimethylphenyl)-4,5-bis(4-methoxyphenyl)-1H-imidazole-1-yl)methyl)benzamide], the figures for the cytotoxicity at 15 µM with HeLa cells and with A549 cells were 34 ± 1.61% and 37 ± 0.5%, respectively.

With `COc1ccc(-c2nc(-c3cc(OC)cc(OC)c3)n(Cc3ccc(C(=O)NCCOCCOCCN)cc3)c2-c2ccc(OC)cc2)cc1` [Example 46, N-(2-(2-(2-aminoethoxy)ethoxy)ethyl)-4-((2-(3,5-dimethoxyphenyl)-4,5-bis(4-methoxyphenyl)-1H-imidazole-1-yl)methyl)benzamide], the cytotoxicity at 15 µM was determined as 48 ± 0.28% in the assay with HeLa cells and 37 ± 1.34% with A549 cells.

As to `COC(=O)c1cc(C(=O)OC)cc(-c2nc(-c3ccc(OC)cc3)c(-c3ccc(OC)cc3)n2Cc2ccc(C(=O)NCCOCCOCCN)cc2)c1` [Example 47, Dimethyl 5-(1-(4-(2-(2-(2-aminoethoxy)ethoxy)ethylcarbamoyl)benzyl)-4,5-bis(4-methoxyphenyl)-1H-imidazole-2-yl)isophthalate], the cytotoxicity at 15 µM with HeLa cells is 40 ± 0.7%; with A549 cells, 37 ± 0.86%.

`COc1ccc(-c2nc(-c3cc(OC)c(OC)c(OC)c3)n(Cc3ccc(C(=O)NCCOCCOCCN)cc3)c2-c2ccc(OC)cc2)cc1` [Example 48, N-(2-(2-(2-aminoethoxy)ethoxy)ethyl)-4-((4,5-bis(4-methoxyphenyl)-2-(3,4,5-trimethoxyphenyl)-1H-imidazole-1-yl)methyl)benzamide]: the values for the cytotoxicity at 15 µM in the assay with HeLa cells and in the assay on A549 cells were 30 ± 0.76% and 23 ± 0.68%, respectively.

With `NCCOCCOCCNC(=O)c1ccc(Cn2c(-c3cc(C(F)(F)F)cc(C(F)(F)F)c3)nc(-c3ccc(Cl)cc3)c2-c2ccc(Cl)cc2)cc1` [Example 49, N-(2-(2-(2-aminoethoxy)ethoxy)ethyl)-4-((2-(3,5-bis(trifluoromethyl)phenyl)-4,5-bis(4-chlorophenyl)-1H-imidazole-1-yl)methyl)benzamide], the “Apoptosis (%) HeLa cells” value in the assay on HeLa cells is reported as 26 ± 0.38%. In addition, the “Apoptosis (%) A549 cells” value in the assay on A549 cells came to 0 ± 1.26%.

Regarding `COc1ccc(-c2nc(-c3cccc(C(F)(F)F)c3)n(Cc3ccc(C(=O)NCCOCCOCCN)cc3)c2-c2ccc(OC)cc2F)c(F)c1` [Example 68, N-(2-(2-(2-aminoethoxy)ethoxy)ethyl)-4-((4,5-bis(2-fluoro-4-methoxyphenyl)-2-(3-(trifluoromethyl)phenyl)-1H-imidazole-1-yl)methyl)benzamide], the results for the cytotoxicity at 15 µM in the assay with HeLa cells and in the assay on A549 cells were 89 ± 0.28% and 58 ± 1.48%, respectively.

In the case of `COC(=O)c1cc(C(=O)OC)cc(-c2nc(-c3ccc(OC)cc3)c(-c3ccc(OC)cc3)n2Cc2ccc(C(=O)NCCOCCOCCN)cc2)c1` [Example 100, Dimethyl 5-(1-(4-(2-(2-(2-aminoethoxy)ethoxy)ethylcarbamoyl)benzyl)-4,5-bis(4-methoxyphenyl)-1H-imidazole-2-yl)isophthalate], the “Apoptosis (%) HeLa cells” value in the assay with HeLa cells turned out to be 37 ± 1.54%. Moreover, in the assay with A549 cells, the “Apoptosis (%) A549 cells” value is 31 ± 1.78%.

`COc1ccc(-c2nc(-c3cc(OC)c(OC)c(OC)c3)n(Cc3ccc(C(=O)NCCOCCOCCN)cc3)c2-c2ccc(OC)cc2)cc1` [Example 102, N-(2-(2-(2-aminoethoxy)ethoxy)ethyl)-4-((4,5-bis(4-methoxyphenyl)-2-(3,4,5-trimethoxyphenyl)-1H-imidazole-1-yl)methyl)benzamide]: the “Apoptosis (%) HeLa cells” value in the assay with HeLa cells was found to be 29 ± 2.30%. The “Apoptosis (%) A549 cells” value with A549 cells was found to be 25 ± 1.92%.

Consider `NCCOCCOCCNC(=O)c1ccc(Cn2c(-c3cc(C(F)(F)F)cc(C(F)(F)F)c3)nc(-c3ccc4c(c3)OCO4)c2-c2ccc3c(c2)OCO3)cc1` [Example 103, N-(2-(2-(2-aminoethoxy)ethoxy)ethyl)-4-((4,5-di(benzo[d][1,3]dioxol-5-yl)-2-(3,5-bis(trifluoromethyl)phenyl)-1H-imidazole-1-yl)methyl)benzamide], for which the cytotoxicity at 15 µM with HeLa cells and with A549 cells was 0% in each case.

With `NCCOCCOCCNC(=O)c1ccc(Cn2c(-c3cc(C(F)(F)F)cc(C(F)(F)F)c3)nc(-c3ccc4ccccc4c3)c2-c2ccc3ccccc3c2)cc1` [Example 105, N-(2-(2-(2-aminoethoxy)ethoxy)ethyl)-4-((2-(3,5-bis(trifluoromethyl)phenyl)-4,5-di(naphthalene-2-yl)-1H-imidazole-1-yl)methyl)benzamide], the cytotoxicity at 15 µM in the assay on HeLa cells turned out to be 49 ± 0.41%; in the assay on A549 cells, 39 ± 0.48%.

Consider `NCCOCCOCCNC(=O)c1ccc(Cn2c(-c3cc(C(F)(F)F)cc(C(F)(F)F)c3)nc(-c3ccc4ncccc4c3)c2-c2ccc3ncccc3c2)cc1` [Example 106, N-(2-(2-(2-aminoethoxy)ethoxy)ethyl)-4-((2-(3,5-bis(trifluoromethyl)phenyl)-4,5-di(quinoline-6-yl)-1H-imidazole-1-yl)methyl)benzamide], for which the results for the cytotoxicity at 15 µM with HeLa cells and with A549 cells were 42 ± 0.76% and 38 ± 1.28%, respectively.

On to `COc1ccc(-c2nc(-c3cc(O)cc(O)c3)n(Cc3ccc(C(N)=O)cc3)c2-c2ccc(OC)cc2)cc1` [Example 107, 4-((2-(3,5-dihydroxyphenyl)-4,5-bis(4-methoxyphenyl)-1H-imidazole-1-yl)methyl)benzamide], for which the cytotoxicity at 15 µM in the assay with HeLa cells stood at 0%; in the assay on A549 cells, 16 ± 0.3%.

In the case of `COc1ccc(-c2nc(-c3cc(C#N)cc(C#N)c3)n(Cc3ccc(C(N)=O)cc3)c2-c2ccc(OC)cc2)cc1` [Example 108, 4-((2-(3,5-dicyanophenyl)-4,5-bis(4-methoxyphenyl)-1H-imidazole-1-yl)methyl)benzamide], the results for the cytotoxicity at 15 µM in the assay on HeLa cells and in the assay on A549 cells were 12 ± 1.26% and 2 ± 0.8%, respectively.

For `COc1ccc(-c2nc(-c3cc(C(F)(F)F)cc(C(F)(F)F)c3)n(Cc3ccc(C(=O)NO)cc3)c2-c2ccc(OC)cc2)cc1` [Example 117, 4-((2-(3,5-bis(trifluoromethyl)phenyl)-4,5-bis(4-methoxyphenyl)-1H-imidazole-1-yl)methyl)-N-hydroxybenzamide], the figures for the cytotoxicity at 15 µM in the assay with HeLa cells and in the assay with A549 cells were 40 ± 1.67% and 43 ± 0.52%, respectively.

In the case of `COc1ccc(-c2nc(-c3cc(C(F)(F)F)cc(C(F)(F)F)c3)n(Cc3ccc(C(N)=S)cc3)c2-c2ccc(OC)cc2)cc1` [Example 118, 4-((2-(3,5-bis(trifluoromethyl)phenyl)-4,5-bis(4-methoxyphenyl)-1H-imidazole-1-yl)methyl)benzothioamide], the cytotoxicity at 15 µM in the assay on HeLa cells is 50 ± 1.66%; in the assay with A549 cells it was 50 ± 0.41%.
